Literature values as cited in patent US11826321B2, “Cyclobenzaprine treatment for agitation, psychosis and cognitive decline in dementia and neurodegenerative conditions” (TONIX PHARMA HOLDINGS LIMITED, priority 2017, dated 2023).

Legend:
[1] = PubMed, NIH Drug Reaction Navigator, Medscape Drug Interaction Checker, Drugs.com
[2] = IR 5 mg TID, 10 doses over 4 days, healthy elderly 62 to 80 years
[3] = target: serotonergic-2A (5-HT2A) receptor (Homo sapiens, UniProt P28223)
[4] = target: alpha-adrenergic-1A (α1A) receptor (Homo sapiens, UniProt P35348)
[5] = IR 5 to 10 mg TID and ER 15 mg BID/QD to 30 mg QD; scale to 3

Sequence of alpha-adrenergic-1A (α1A) receptor (P35348 whole entry): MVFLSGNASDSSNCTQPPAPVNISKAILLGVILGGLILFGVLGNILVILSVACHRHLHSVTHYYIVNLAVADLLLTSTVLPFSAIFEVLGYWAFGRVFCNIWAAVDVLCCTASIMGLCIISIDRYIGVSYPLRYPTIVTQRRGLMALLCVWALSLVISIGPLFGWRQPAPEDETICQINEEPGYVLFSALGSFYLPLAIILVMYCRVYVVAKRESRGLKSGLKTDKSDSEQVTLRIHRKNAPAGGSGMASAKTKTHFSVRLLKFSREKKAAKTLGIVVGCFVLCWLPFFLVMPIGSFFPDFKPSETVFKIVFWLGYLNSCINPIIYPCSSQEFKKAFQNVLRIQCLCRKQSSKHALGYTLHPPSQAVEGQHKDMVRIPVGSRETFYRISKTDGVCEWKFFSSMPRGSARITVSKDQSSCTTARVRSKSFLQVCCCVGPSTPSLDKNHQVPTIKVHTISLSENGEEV
Sequence of serotonergic-2A (5-HT2A) receptor (P28223 whole entry, species assumed): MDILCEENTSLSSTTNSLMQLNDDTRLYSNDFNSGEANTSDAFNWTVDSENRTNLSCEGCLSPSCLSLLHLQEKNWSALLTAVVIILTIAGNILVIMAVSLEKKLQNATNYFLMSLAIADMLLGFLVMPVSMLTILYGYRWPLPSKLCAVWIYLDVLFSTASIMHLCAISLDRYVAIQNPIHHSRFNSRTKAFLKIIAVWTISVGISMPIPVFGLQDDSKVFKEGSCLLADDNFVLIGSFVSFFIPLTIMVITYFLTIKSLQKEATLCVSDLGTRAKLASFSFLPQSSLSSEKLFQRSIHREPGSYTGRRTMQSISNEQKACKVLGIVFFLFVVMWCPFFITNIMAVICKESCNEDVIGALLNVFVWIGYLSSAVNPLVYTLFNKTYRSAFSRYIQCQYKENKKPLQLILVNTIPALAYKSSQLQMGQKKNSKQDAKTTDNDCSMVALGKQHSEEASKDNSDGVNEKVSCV

- hallucinations reported among patients who took 5 mg TID (5 mg TID): none were reported
- 5-HT2A antagonist potency [3]: potent
- α1A antagonist potency [4]: potent
- anticholinergic burden scale score [5]: 2
Compound: CN(C)CCC=C1c2ccccc2C=Cc2ccccc21 [Cyclobenzaprine, 3-(5H-dibenzola[a,d]cyclohepten-5-ylidene)-N,N-dimethyl-1 propanamine]
- incidence of hallucinations (cyclobenzaprine 10 mg, mostly elderly patients): 0.2%
- reports of drug-drug interactions with donepezil, rivastigmine, galantamine, memantine [1]: did not identify any reports of interactions
- drowsiness and cognitive test performance [2]: does not appear to cause excessive drowsiness or impair performance on cognitive tasks
